We go through 38 compounds from patent US7473790B2 (Pfizer Inc., priority 2003, dated 2009).

T1 sequence (P26663 2420-3010): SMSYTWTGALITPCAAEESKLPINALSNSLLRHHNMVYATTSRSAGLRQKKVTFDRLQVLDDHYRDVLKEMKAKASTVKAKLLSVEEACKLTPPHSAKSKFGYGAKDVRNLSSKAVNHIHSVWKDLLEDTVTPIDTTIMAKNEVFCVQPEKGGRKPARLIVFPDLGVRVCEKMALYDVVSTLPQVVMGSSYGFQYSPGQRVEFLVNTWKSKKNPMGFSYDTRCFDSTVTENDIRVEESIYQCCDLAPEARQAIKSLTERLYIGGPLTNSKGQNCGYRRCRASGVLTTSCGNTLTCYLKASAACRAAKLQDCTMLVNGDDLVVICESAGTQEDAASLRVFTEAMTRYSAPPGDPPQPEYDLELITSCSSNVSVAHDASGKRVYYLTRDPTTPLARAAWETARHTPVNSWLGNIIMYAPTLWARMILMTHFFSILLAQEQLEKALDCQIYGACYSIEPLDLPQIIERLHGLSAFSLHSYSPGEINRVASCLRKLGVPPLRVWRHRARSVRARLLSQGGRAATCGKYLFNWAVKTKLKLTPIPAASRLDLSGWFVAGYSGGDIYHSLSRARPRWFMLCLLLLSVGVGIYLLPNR

The first test addresses T1, HCV polymerase (Hepatitis C virus genotype 1b, UniProt P26663).
T1 construct: 2.5 pmoles (0.15 μg) HCV polymerase protein in a final volume of 75 μL
Briefly: HCV polymerase primer/template-directed transcription assay (32P-GTP incorporation, filter binding). The class given is biochemical. Conditions: @ 50 uM compound; given where IC50 was impractical to calculate; read-out: percent inhibition. The method in brief:
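IC50s come from triplicate cpm, refit with an enzyme-concentration (30 nM) correction when under 200 nM. Reactions ran 30 min at 30° C in Tris pH 7.2 with MgCl2, 1 μM GTP spiked with α-32P-GTP, biotin-dG12 primer and poly(rC)300 template, with 1% DMSO. Incorporated label was collected on DE filtermats and counted.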
In general, inhibition refers to the change of the read-out against control, counted positive when it falls. In the case of `O=C1CC(=O)OC(CCN2CCCC2=O)(C2CCCC2)C1` (centres unmarked) [A(14), 6-Cyclopentyl-6-[2-(2-oxo-pyrrolidin-1-yl)-ethyl]-dihydro-pyran-2,4-dione], the inhibition at 50 µM was 35%. On the same count and under the same terms, in the case of `CC(=O)n1nc(C)c(CCC2(C3CCCC3)CC(=O)CC(=O)O2)c1C` (centres unmarked) [A(19), 6-[2-(1-Acetyl-3,5-dimethyl-1H-pyrazol-4-yl)-ethyl]-6-cyclopentyl-dihydro-pyran-2,4-dione] it was 37%. As to `CCC1(CCc2ccc(OC)cc2)CC(=O)CC(=O)O1` (centres unmarked) [A(23), 6-Ethyl-6-[2-(4-methoxy-phenyl)-ethyl]-dihydro-pyran-2,4-dione], the inhibition at 50 µM is 1%. Take `COc1ccc(CCC2(CC(C)C)CC(=O)CC(=O)O2)cc1` (centres unmarked) [A(24), 6-Isobutyl-6-[2-(4-methoxy-phenyl)-ethyl]-dihydro-pyran-2,4-dione]: the inhibition at 50 µM is 29%. The same measure, in the same setting: the result for `C=CCC1(CCc2ccc(OC)cc2)CC(=O)CC(=O)O1` (centres unmarked) [A(26), 6-Allyl-6-[2-(4-methoxy-phenyl)-ethyl]-dihydro-pyran-2,4-dione] reads 20%; that for `CCOC(=O)CC(=O)N[C@H](C)c1ccc(CCC2(C3CCCC3)CC(=O)CC(=O)O2)cc1` (some centres unmarked) [A(39), N-(1-{4-[2-(2-Cyclopentyl-4,6-dioxo-tetrahydro-pyran-2-yl)-ethyl]-phenyl}-ethyl)-malonamic acid ethyl ester], 14%.

The test is the same for the next values; noted with them: recombinant HCV polymerase; 30 minutes at 30° C.; concentration giving 50% inhibition of polymerase-directed transcription; read-out: IC50.
As usually defined, the IC50 is the point on the concentration scale where inhibition reaches its midpoint. On to `Cc1ccc(-c2ccc(CCC3(C4CCCC4)CC(=O)CC(=O)O3)cc2F)s1` (centres unmarked) [A(12), 6-Cyclopentyl-6-{2-[3-fluoro-4-(5-methyl-thiophen-2-yl)-phenyl]-ethyl}-dihydro-pyran-2,4-dione], for which the half-maximal inhibitory concentration (IC50) came out at 18.3 µM.

Turning to `O=C1CC(=O)OC(CCC2=CCCCC2)(C2CCCC2)C1` (centres unmarked) [A(13), 6-(2-Cyclohex-1-enyl-ethyl)-6-cyclopentyl-dihydro-pyran-2,4-dione], the IC50 turned out to be 63 µM. Turning to `Cc1nc(-c2ccc(CCC3(C4CCCC4)CC(=O)CC(=O)O3)cc2F)no1` (centres unmarked) [A(15), 6-Cyclopentyl-6-{2-[3-fluoro-4-(5-methyl-[1,2,4]oxadiazol-3-yl)-phenyl]-ethyl}-dihydro-pyran-2,4-dione], the IC50 is 4.4 µM. For the compound `CN(C)C(=O)c1ccc(CCC2(C3CCCC3)CC(=O)CC(=O)O2)cc1F` (centres unmarked) [A(16), 4-[2-(2-Cyclopentyl-4,6-dioxo-tetrahydro-pyran-2-yl)-ethyl]-2-fluoro-N,N-dimethyl-benzamide], the IC50 is 14.4 µM. Same read-out and setting: the result for `CCNC(=O)c1ccc(CCC2(C3CCCC3)CC(=O)CC(=O)O2)cc1F` (centres unmarked) [A(17), 4-[2-(2-Cyclopentyl-4,6-dioxo-tetrahydro-pyran-2-yl)-ethyl]-N-ethyl-2-fluoro-benzamide] reads 23 µM.

With `Cc1noc(C)c1-c1ccc(CCC2(C3CCCC3)CC(=O)CC(=O)O2)cc1` (centres unmarked) [A(18), 6-Cyclopentyl-6-{2-[4-(3,5-dimethyl-isoxazol-4-yl)-phenyl]-ethyl}-dihydro-pyran-2,4-dione], the concentration for half-maximal inhibition (IC50) was found to be 3.1 µM.

In the case of `CCc1cc(CCC2(C3CCCC3)CC(=O)CC(=O)O2)ccc1O` (centres unmarked) [A(22), 6-Cyclopentyl-6-[2-(3-ethyl-4-hydroxy-phenyl)-ethyl]-dihydro-pyran-2,4-dione], the IC50 is 0.3 µM. Still for that read-out and setting: in the case of `CCCC1(CCc2ccc(OC)cc2)CC(=O)CC(=O)O1` (centres unmarked) [A(25), 6-[2-(4-Methoxy-phenyl)-ethyl]-6-propyl-dihydro-pyran-2,4-dione] it was 73.9 µM; in that of `CC1(c2ccc(CCC3(C4CCCC4)CC(=O)CC(=O)O3)cc2Cl)CC(=O)CC(=O)O1` (centres unmarked) [A(27), 6-[2-(3-Chloro-4-(6-Methyl-dihydro-pyran-2,4-dione)-phenyl)-ethyl]-6-cyclopentyl-dihydro-pyran-2,4-dione], 0.125 µM; in that of `CC1(c2cccc(CCC3(C4CCCC4)CC(=O)CC(=O)O3)c2)CC(=O)CC(=O)O1` (centres unmarked) [A(28), 6-Cyclopentyl-6-[2-(3-(6-Methyl-dihydro-pyran-2,4-dione)-phenyl)-ethyl]-dihydro-pyran-2,4-dione], 3.9 µM. Same read-out and setting: the result for `CC1(c2ccc(CCC3(C4CCCC4)CC(=O)CC(=O)O3)cc2)CCC(=O)O1` (centres unmarked) [A(29), 6-Cyclopentyl-6-{2-[4-(2-methyl-5-oxo-tetrahydro-furan-2-yl)-phenyl]-ethyl}-dihydro-pyran-2,4-dione] reads 1.5 µM; that for `CCC1(c2ccc(CCC3(C4CCCC4)CC(=O)CC(=O)O3)cc2Cl)CC(=O)CC(=O)O1` (centres unmarked) [A(30), 6-[2-(3-Chloro-4-(6-Ethyl-dihydro-pyran-2,4-dione)-phenyl)-ethyl]-6-cyclopentyl-dihydro-pyran-2,4-dione], 0.84 µM; that for `O=C1CC(=O)OC(CCc2ccc(C3(C4CC4)CC(=O)CC(=O)O3)cc2)(C2CCCC2)C1` (centres unmarked) [A(31)], 0.4 µM. Still for that read-out and setting: the result for `O=C1CC(=O)OC(CCc2ccc(C(=O)C3CC3)cc2)(C2CCCC2)C1` (centres unmarked) [A(32), 6-Cyclopentyl-6-[2-(4-cyclopropanecarbonyl-phenyl)-ethyl]-dihydro-pyran-2,4-dione] reads 5.2 µM. `COC(=O)C(C)(C)c1ccc(CCC2(C3CCCC3)CC(=O)CC(=O)O2)cc1` (centres unmarked) [A(33), 2-{4-[2-(2-Cyclopentyl-4,6-dioxo-tetrahydro-pyran-2-yl)-ethyl]-phenyl}-2-methyl-propionic acid methyl ester]: the IC50 was 5 µM.

On to `CC(C)(C)C1(c2ccc(CCC3(C4CCCC4)CC(=O)CC(=O)O3)cc2)OCCO1` (centres unmarked) [A(34), 6-{2-[4-(2-tert-Butyl-[1,3]dioxolan-2-yl)-phenyl]-ethyl}-6-cyclopentyl-dihydro-pyran-2,4-dione], for which the IC50 worked out at 10 µM. The same measure, in the same setting: the result for `C[C@@H](O)c1ccc(CCC2(C3CCCC3)CC(=O)CC(=O)O2)cc1` (some centres unmarked) [A(35), 6-Cyclopentyl-6-{2-[4-(1-hydroxy-ethyl)-phenyl]-ethyl}-dihydro-pyran-2,4-dione] reads 4.1 µM. On the same count and under the same terms, the result for `C[C@H](O)c1ccc(CCC2(C3CCCC3)CC(=O)CC(=O)O2)cc1` (some centres unmarked) [A(36), 6-Cyclopentyl-6-{2-[4-(1-hydroxy-ethyl)-phenyl]-ethyl}-dihydro-pyran-2,4-dione] reads 8.4 µM. Same read-out and setting: in the case of `CC(C)(C)C(=O)c1ccc(CCC2(C3CCCC3)CC(=O)CC(=O)O2)cc1` (centres unmarked) [A(37), 6-Cyclopentyl-6-{2-[4-(2,2-dimethyl-propionyl)-phenyl]-ethyl}-dihydro-pyran-2,4-dione] it was 8.7 µM; in that of `CC(=O)N[C@H](C)c1ccc(CCC2(C3CCCC3)CC(=O)CC(=O)O2)cc1` (some centres unmarked) [A(38), N-(1-{4-[2-(2-Cyclopentyl-4,6-dioxo-tetrahydro-pyran-2-yl)-ethyl]-phenyl}-ethyl)-acetamide], 12 µM. With `N#CC1(c2ccc(CCC3(C4CCCC4)CC(=O)CC(=O)O3)cc2)CC1` (centres unmarked) [A(40), 1-{4-[2-(2-Cyclopentyl-4,6-dioxo-tetrahydro-pyran-2-yl)-ethyl]-phenyl}-cyclopropanecarbonitrile], the IC50 is 2 µM. Take `CNC(=O)N[C@H](C)c1ccc(CCC2(C3CCCC3)CC(=O)CC(=O)O2)cc1` (some centres unmarked) [A(41), 1-(1-{4-[2-(2-Cyclopentyl-4,6-dioxo-tetrahydro-pyran-2-yl)-ethyl]-phenyl}-ethyl)-3-methyl-urea]: the IC50 is 13 µM. As for `C[C@@H](NS(C)(=O)=O)c1ccc(CCC2(C3CCCC3)CC(=O)CC(=O)O2)cc1` (some centres unmarked) [A(42), N-(1-{4-[2-(2-Cyclopentyl-4,6-dioxo-tetrahydro-pyran-2-yl)-ethyl]-phenyl}-ethyl)-methanesulfonamide], the IC50 turned out to be 8 µM. On the same count and under the same terms, the result for `Cc1cc(C(=O)N[C@H](C)c2ccc(CCC3(C4CCCC4)CC(=O)CC(=O)O3)cc2)no1` (some centres unmarked) [A(43), 5-Methyl-isoxazole-3-carboxylic acid (1-{4-[2-(2-cyclopentyl-4,6-dioxo-tetrahydro-pyran-2-yl)-ethyl]-phenyl}-ethyl)-amide] reads 20 µM.

`O=C1CC(=O)OC(CCC2CCCCC2)(C2CCCC2)C1` (centres unmarked) [A(44), 6-(2-Cyclohexyl-ethyl)-6-cyclopentyl-dihydro-pyran-2,4-dione]: the concentration for half-maximal inhibition (IC50) came out at 68.3 µM. Take `N#Cc1cccc(-c2ccc(CCC3(C4CCCC4)CC(=O)CC(=O)O3)cc2)c1` (centres unmarked) [A(45), 4′-[2-(2-Cyclopentyl-4,6-dioxo-tetrahydro-pyran-2-yl)-ethyl]-biphenyl-3-carbonitrile]: the IC50 turned out to be 30 µM.

For the compound `N#Cc1ccccc1CCC1(C2CCCC2)CC(=O)CC(=O)O1` (centres unmarked) [A(46), 2-[2-(2-Cyclopentyl-4,6-dioxo-tetrahydro-pyran-2-yl)-ethyl]-benzonitrile], the IC50 is 73 µM. The same measure, in the same setting: in the case of `O=C1CC(=O)OC(CCc2ccc3ccccc3c2)(C2CCCC2)C1` (centres unmarked) [A(47), 6-Cyclopentyl-6-(2-naphthalen-2-yl-ethyl)-dihydro-pyran-2,4-dione] it was 7 µM; in that of `O=C1CC(=O)OC(CCc2ccc(OC3CCCCO3)cc2)(C2CCCC2)C1` (centres unmarked) [A(48), 6-Cyclopentyl-6-{2-[4-(tetrahydro-pyran-2-yloxy)-phenyl]-ethyl}-dihydro-pyran-2,4-dione], 33.2 µM; in that of `CNC(=O)C(C)(C)c1ccc(CCC2(C3CCCC3)CC(=O)CC(=O)O2)cc1` (centres unmarked) [A(49), 2-{4-[2-(2-Cyclopentyl-4,6-dioxo-tetrahydro-pyran-2-yl)-ethyl]-phenyl}-N-methyl-isobutyramide], 9 µM.

With `O=C1CC(=O)OC(CCc2ccc(-c3nnc(-c4ccccc4)o3)cc2)(C2CCCC2)C1` (centres unmarked) [A(50), 6-Cyclopentyl-6-{2-[4-(5-phenyl-[1,3,4]oxadiazol-2-yl)-phenyl]-ethyl}-dihydro-pyran-2,4-dione], the IC50 came out at 5.9 µM. The same measure, in the same setting: the result for `CCNC(=O)C(C)(C)c1ccc(CCC2(C3CCCC3)CC(=O)CC(=O)O2)cc1` (centres unmarked) [A(51), 2-{4-[2-(2-Cyclopentyl-4,6-dioxo-tetrahydro-pyran-2-yl)-ethyl]-phenyl}-N-ethyl-isobutyramide] reads 3.9 µM.
